Patent publication US20100202971A1, “COMPOUND HAVING TUMOR-RESIDENT PROPERTY” (priority 2009, published 2010)

Key:
Type in all cases: in vivo, KSN nude mice
[1] = tested on: human esophageal squamous cell carcinoma cells TE-8; assay: Biological distribution of biotinated αSQMG in tumor of tumor-bearing nude mice (TRITC-avidin staining of tumor segments); conditions: intravenous 40, 20 and 2 mg/kg, FIG. 1
Experimental: 1×10^6 of human esophageal squamous cell carcinoma cells TE-8 were transplanted into the right femoral region of 11 male KSN nude mice (Japan SLC, Inc.), and the mice were bred to form a tumor mass of about […] volume.
Thereafter, biotinated αSQMG C18:0 (formula XI) was dissolved in physiological saline solution, and 0.1 mL of the solution per administration was intravenously administered to each group comprising three mice so that the amount of the biotinated αSQMG C18:0 could be 40 mg/kg, 20 mg/kg, and 2 mg/kg. To two reference tumor bearing mice, physiological saline was administered. […]
In order to evaluate a tumor region which emits fluorescence due to TRITC, binarization imaging was performed with use of Photoshop. Thereafter, a portion (fraction) containing tumor tissues was selected from the visual field, and the number of pixels of a TRITC positive region (black color region) and the entire region were counted and the ratio of the positive region was calculated according to the formula:
The proportion (%) of biotinated αSQAP detected region=[the area of the black color region (region where the biotinated αSQMG was detected)]/[the area of the whole of the selected fraction]×100=[the number of pixels in the TRITC positive region]/[the number of pixels in the whole fraction]×100 (%) formula (A) […]

[2] = tested on: human colon carcinoma cells (SW480); assay: Pharmacokinetics 1: concentration-time course in blood plasma, organs and tumor after intraperitoneal administration (LC/MS); conditions: 10 mg/kg intraperitoneal; for concentration in tumor tissues immediately after administration in comparison with other tissues / concentration in tumor tissues 24 hours after administration / residence in tumor tissues: SW480 tumor; for time of the highest concentration in blood plasma, liver, kidney, spleen and lung / time after administration at which concentration fell below the detection limit, blood plasma / time after administration at which concentration fell below the detection limit, kidney / time after administration at which concentration fell below the detection limit, liver / time after administration at which concentration fell below the detection limit, lung / time after administration at which concentration fell below the detection limit, spleen: SW480 tumor-bearing nude mice; for residence in tumor tissues: followed to 24 hours
Experimental: To eight-week-old male KSN nude mice (Japan SLC, Inc.), 2×10^6 of human colon carcinoma cells (SW480) were transplanted subcutaneously, two weeks later (body weight approximately 25 g, tumor volume approximately 200 mm^3) αSQMG C18:0 or αSQAP C18:0 was dissolved in physiological saline solution and administered intraperitoneally at a dose of 10 mg/kg (0.1 mL). After the administration, the mice were slaughtered chronologically with carbon dioxide; 30 minute, 1 hour, 2 hours, 4 hours, 12 hours, and 24 hours after the administration. Tissues of blood, liver, kidney, lung and spleen, and tumor tissue were then collected. At each time when tissues were collected, five animals were used.
Whole blood was collected from postcaval vein with use of an injection needle wetted with heparin sodium injection solution (10,000 unit/10 mL) to obtain blood plasma by 20 minutes of centrifugation at 6,000 g. To 90 μl of blood plasma, 5 μl of an internal standard compound (αSQMG C16:0), 5 μl of distilled water, and 4 μl of phosphoric acid were added, and denatured protein by adding 96 μl of acetonitrile. To 0.2 mL of the solution, 600 μl of 10 mM ammonium acetate solution was added, and stirred sufficiently to obtain supernatant by centrifugation at 16,000 g for 15 minutes. The supernatant was subjected to solid-phase extraction operation as described below. The solid-phase extraction was performed by washing with 1000 μl of 10 mM ammonium acetate aqueous solution and 200 μl of 10 mM ammonium acetate aqueous solution containing 10% acetonitrile, followed by elution of a test compound with 200 μl of 10 mM ammonium acetate aqueous solution containing 70% acetonitrile with use of Empore (trademark) disc cartridge (3M Company, product number 4115SD). The compound was used as a LC/MS analytical sample.
Each organ was extirpated after collection of blood and immediately frozen on dry ice. The frozen sample was subjected to frost shattering, and the weight was measured. Subsequently, ½-fold (weight ratio) internal standard compound (αSQMG C16:0) and distilled water were added, and 8-fold (weight ratio) extraction solution (2.5% NP-40, 2% phosphoric acid, 2 mM Eserine aqueous solution) was further added to the sample, followed by homogenization. The homogenized solution was subjected to protein denaturation with acetonitrile and solid phase extraction in the same manner as the above-mentioned treatment of blood plasma to obtain an analytical sample.
10 μl of the analytical sample was separated with a reverse phase HPLC system equipped with Capcell Pak MG column (particle diameter; 3 μm, column size; 2.1×50 mm, Shiseido Co., Ltd.). HPLC was performed with 68% acetonitrile and a single solvent of 10 mM ammonium acetate aqueous solution at a flow rate of 0.2 mL per minute. Mass spectrum was measured in a negative mode, and the peak area ratio of the internal standard compound was calculated by integration of the peak area from chromatogram corresponding to each ion by measuring a precursor ion; m/z=583.1, fragment ion; m/z=224.7 and m/z=298.8 for αSQMG C18:0, a precursor ion; m/z=567.1, fragment ion; m/z=224.7 and m/z=283.1 for αSQAP C18:0, and a precursor ion; m/z=555.1, fragment ion; m/z=224.7 and m/z=298.8 for a internal standard compound αSQMG C16:0. As a method of quantitative analysis, an internal standard analysis was adopted. More specifically, a standard curve was drawn based on the peak area ratio of the internal standard compound by analyzing the sample to which the test compound was added, to determine the quantity of the test compound.

[3] = tested on: human sophageal squamous cell carcinoma cells TE-8; assay: Pharmacokinetics 2: concentration-time course in blood plasma, organs and tumor after intravenous administration (LC/MS); conditions: 1 mg/kg intravenous
Experimental: To eight-week-old male KSN nude mice (Japan SLC, Inc.), 2×10^6 of human colon carcinoma cells (SW480) were transplanted subcutaneously, two weeks later (body weight approximately 25 g, tumor volume approximately 200 mm^3) αSQMG C18:0 or αSQAP C18:0 was dissolved in physiological saline solution and administered intraperitoneally at a dose of 10 mg/kg (0.1 mL). After the administration, the mice were slaughtered chronologically with carbon dioxide; 30 minute, 1 hour, 2 hours, 4 hours, 12 hours, and 24 hours after the administration. Tissues of blood, liver, kidney, lung and spleen, and tumor tissue were then collected. At each time when tissues were collected, five animals were used. Whole blood was collected from postcaval vein with use of an injection needle wetted with heparin sodium injection solution (10,000 unit/10 mL) to obtain blood plasma by 20 minutes of centrifugation at 6,000 g. To 90 μl of blood plasma, 5 μl of an internal standard compound (αSQMG C16:0), 5 μl of distilled water, and 4 μl of phosphoric acid were added, and denatured protein by adding 96 μl of acetonitrile. To 0.2 mL of the solution, 600 μl of 10 mM ammonium acetate solution was added, and stirred sufficiently to obtain supernatant by centrifugation at 16,000 g for 15 minutes. The supernatant was subjected to solid-phase extraction operation as described below. The solid-phase extraction was performed by washing with 1000 μl of 10 mM ammonium acetate aqueous solution and 200 μl of 10 mM ammonium acetate aqueous solution containing 10% acetonitrile, followed by elution of a test compound with 200 μl of 10 mM ammonium acetate aqueous solution containing 70% acetonitrile with use of Empore (trademark) disc cartridge (3M Company, product number 4115SD). The compound was used as a LC/MS analytical sample. Each organ was extirpated after collection of blood and immediately frozen on dry ice. The frozen sample was subjected to frost shattering, and the weight was measured. Subsequently, ½-fold (weight ratio) internal standard compound (αSQMG C16:0) and distilled water were added, and 8-fold (weight ratio) extraction solution (2.5% NP-40, 2% phosphoric acid, 2 mM Eserine aqueous solution) was further added to the sample, followed by homogenization. The homogenized solution was subjected to protein denaturation with acetonitrile and solid phase extraction in the same manner as the above-mentioned treatment of blood plasma to obtain an analytical sample. 10 μl of the analytical sample was separated with a reverse phase HPLC system equipped with Capcell Pak MG column (particle diameter; 3 μm, column size; 2.1×50 mm, Shiseido Co., Ltd.). HPLC was performed with 68% acetonitrile and a single solvent of 10 mM ammonium acetate aqueous solution at a flow rate of 0.2 mL per minute. Mass spectrum was measured in a negative mode, and the peak area ratio of the internal standard compound was calculated by integration of the peak area from chromatogram corresponding to each ion by measuring a precursor ion; m/z=583.1, fragment ion; m/z=224.7 and m/z=298.8 for αSQMG C18:0, a precursor ion; m/z=567.1, fragment ion; m/z=224.7 and m/z=283.1 for αSQAP C18:0, and a precursor ion; m/z=555.1, fragment ion; m/z=224.7 and m/z=298.8 for a internal standard compound αSQMG C16:0. As a method of quantitative analysis, an internal standard analysis was adopted. More specifically, a standard curve was drawn based on the peak area ratio of the internal standard compound by analyzing the sample to which the test compound was added, to determine the quantity of the test compound. The pharmacokinetics of αSQAP C18:0 was tested by administering 1 mg/kg of αSQAP C18:0 to animals in the same manner as Example 3 except that human sophageal squamous cell carcinoma cells TE-8 were used as tumor of transplanted tumor model and that intravenous administration was adopted as substitute for interperitoneal administration.

Compound | tumor-resident amount ([1]; 9 hours after administration) | staining of tumor tissues (TRITC positive region) ([1]; tumor extracted 9 hours after administration, TE-8 tumor) | concentration in tumor tissues immediately after administration in comparison with other tissues [2] | time of the highest concentration in blood plasma, liver, kidney, spleen and lung [2] | time after administration at which concentration fell below the detection limit, blood plasma [2] | time after administration at which concentration fell below the detection limit, kidney [2] | time after administration at which concentration fell below the detection limit, liver [2] | time after administration at which concentration fell below the detection limit, lung [2] | time after administration at which concentration fell below the detection limit, spleen [2] | concentration in tumor tissues 24 hours after administration [2] | residence in tumor tissues [2] | concentration in tumor tissue immediately after administration in comparison with other organs ([3]; TE-8 tumor) | time of the highest concentration in blood plasma, liver, spleen and lung ([3]; TE-8 tumor-bearing nude mice) | time after administration at which concentration fell below the detection limit, blood plasma ([3]; TE-8 tumor-bearing nude mice, blood plasma) | time after administration at which concentration fell below the detection limit, liver ([3]; TE-8 tumor-bearing nude mice, liver) | time after administration at which concentration fell below the detection limit, lung ([3]; TE-8 tumor-bearing nude mice, lung) | time after administration at which concentration fell below the detection limit, spleen ([3]; TE-8 tumor-bearing nude mice, spleen) [h] | concentration in tumor tissue after 24 hours ([3]; TE-8 tumor, 24 hours) | course of concentration in tumor tissue after two hours ([3]; TE-8 tumor, after two hours) | residence in tumor tissues ([3]; TE-8 tumor, followed to 24 hours)
3-O-[4-O-(biotinyl-β-alanyl)-6-sulfo-α-D-quinovopyranosyl]-1-0-stearoyl-glycerol [biotinated αSQMG C18:0] | high | strongly stained according to the dose | – | – | – | – | – | – | – | – | – | – | – | – | – | – | – | – | – | –
CCCCCCCCCCCCCCCCCC(=O)OCCCO[C@H]1O[C@H](CS(=O)(=O)[O-])[C@@H](O)[C@H](O)[C@H]1O.[Na+] [αSQAP C18:0] | – | – | low | immediately after the administration | four | four | 12 h | four | four | detectable | resides for a long period | low | immediately after administration | two | two | two | 24 | detectable | no decrease tendency | resides for a long period
CCCCCCCCCCCCCCCCCC(=O)OCC(O)CO[C@H]1O[C@H](CS(=O)(=O)[O-])[C@@H](O)[C@H](O)[C@H]1O.[Na+] (some centres unmarked) [αSQMG C18:0] | – | – | low | immediately after the administration | four | four | four | four | 12 h | detectable | resides for a long period | – | – | – | – | – | – | – | – | –
